# Literature values, collected in patent US20040019012A1, “Ophthalmic antibiotic drug formulations containing a cyclodextrin compound and cetyl pyridinium chloride” (priority 2002, published 2004).
# Assays:
# [1] = system: infective gram-positive bacteria; conditions: minimum inhibitory concentration for 90% of the target organisms
# gram-positive organisms = conditions: Staphylococcus, Streptococcus, Enterococcus, Bacillus, Corynebacterium, Chlamydia, Neisseria
smiles,measurement,setting,value
"CC(=O)NC[C@H]1CN(c2ccc(N3CCOCC3)c(F)c2)C(=O)O1 [linezolid, (S)-N-[[3-[3-fluoro-4-(4-morpholinyl)phenyl]-2-oxo-5-oxazolidinyl]methyl]acetamide]",practical limit of concentration in aqueous solution,,about 2 mg/ml
same,MIC90,[1],about 4 μg/ml
same,antibacterial activity against gram-positive organisms,gram-positive organisms,strong antibacterial activity
